Reference: patent US20130310306A1, “HUMAN LACTOFERRIN DERIVED PEPTIDES AND THEIR USE” (PharmaSurgics In Sweden AB, priority 2011, published 2013)
Entries after “also recorded” stand apart in the source; their conditions may differ.

Columns and labels:
[1] = system: A. baumannii (ATCC 19606); assay: MMC99 assay, A. baumannii; format: cell-based; details: Table 8B
Experimental: (§1) The antimicrobial effects of the peptide 265 (SEQ ID NO: 27) was analysed by MMC99 (minimal microbicidal concentration) assay against S. aureus (CCUG 1800), MRSA (CCUG 41879), P. aeruginosa (ATCC 15442), E. coli (CCUG 31246), S. pyogenes (CCUG 4207), P. acnes (CCUG 1794T), S. epidermidis (ATCC12228), K. pneumoniae (ATCC 13883), A. baumannii (ATCC 19606), and C. albicans (ATCC 64549). The peptides were purchased from Biopeptide Company (San Diego, Calif., USA) and Bachem AG (Bubendorf, Switzerland) and results are presented in Table 8A and 8B respectively.
(§2) Peptide was serially diluted in two different assay medium, 1% BHI medium (brain-heart infusion medium) or 50% heat inactivated simulated wound fluid (SWF), and thereafter incubated with the microorganisms for 2 hours. Drops of the suspension were placed on blood agar plates. The MMC99 values, i.e. the lowest peptide concentration needed to achieve a 99% reduction of viable microorganisms, were recorded. As presented in Table 8, the peptide has the ability to kill microorganisms frequently appearing in infections.

[2] = system: S. pyogenes (CCUG 4207); assay: MMC99 assay, S. pyogenes; format: cell-based; details: Table 8A
Experimental: as §1, §2

[3] = system: MRSA (CCUG 41879); assay: MMC99 assay, MRSA; format: cell-based, methicillin resistant S. aureus; details: Table 8A
Experimental: as §1, §2

[4] = system: S. epidermidis (ATCC12228); assay: MMC99 assay, S. epidermidis; format: cell-based; details: Table 8B
Experimental: as §1, §2

[5] = system: S. aureus; assay: Antimicrobial effect in infected wounds, ex vivo model on pig skin; details: S. aureus in PBS/serum (50/50); peptide in H2O 0.1, 0.5 and 2 mg/ml, single administration, four hours; vs placebo (H2O)
Text: (§3) FIG. 5. Dose response effect of peptide 265 (A), on bacterial colonization of infected wounds in pig skin. […] Results are presented as relative bacterial survival (%) compared to control group ±SEM (n=10 wounds). Statistical significance was estimated by Student's t test. *=p<0.05, **=p<0.01, ***=p<0.001.
The antimicrobial effects of the peptide 265 (SEQ ID NO: 27) was investigated in an ex vivo model on pig skin. The wounds were inoculated with S. aureus in the presence of PBS/Serum 50/50. Two hours after inoculation the wounds were treated with a single administration of the peptide or placebo (H2O). Four hours after the treatment bacteria were harvested and viable counts of each wound were determined.

[6] = system: P. aeruginosa (ATCC 15442); assay: MMC99 assay, P. aeruginosa; format: cell-based; details: Table 8A
Experimental: as §1, §2

[7] = system: E. coli (CCUG 31246); assay: MMC99 assay, E. coli; format: cell-based; details: Table 8A
Experimental: as §1, §2

[8] = system: P. acnes (CCUG 1794T); assay: MMC99 assay, P. acnes; format: cell-based; details: Table 8A
Experimental: as §1, §2

[9] = system: MRSA (CCUG 41879); assay: In vivo antimicrobial effect in excision wound model in rats; set-up: species or system rat; details: peptide in H2O 0.1, 0.5 and 2 mg/ml, single administration, two hours, vs control (H2O)
Text: as §3, with “4. Dose-response” for “5. Dose response”, “(A)” for “(A),”, “infected excision” for “infected”, “rats.” for “pig skin.”, “(n=15” for “(n=10”
The in vivo antimicrobial effects of the peptide 265 (SEQ ID NO: 27) was investigated in an excision wound model in rats. The wounds were inoculated with methicillin resistant S. aureus (MRSA) for two hours, followed by a single administration of peptide or control (H2O) for two hours before termination and harvest of the bacteria.

[10] = system: S. aureus (CCUG 1800); assay: Minimal microbicidal concentration (MMC99) assay, S. aureus; format: cell-based
Experimental: Antimicrobial Activity was Measured as Bactericidal Effect on S. Aureus Using Minimal Microbicidal Concentration, MMC99, Assay)
S. aureus (#1800; CCUG, Gothenburg, Sweden) cultured on blood-agar plates [Columbia agar (Oxoid, Basingstoke, UK) supplemented with 5% defibrinated horse blood (National Veterinary Institute (SVA), Uppsala, Sweden)] were transferred to brain heart infusion broth (3.7% BHI; Difco, BD Diagnostics, Franklin Lakes, N.J., USA) and incubated in a shaker at 250 rpm+37° C. over night. The culture was thereafter be diluted 1:10 in fresh BHI broth and incubated for additional two hours to reach log-phase growth. The bacteria were pelleted and suspended in 1% BHI medium (BHI broth diluted 100 times in ultra-pure water) to a concentration of 10^7 bacteria/ml as estimated by measuring optical density at 600 nm. Peptides were serially diluted by two-fold steps from 160 μM to 1.25 μM in 1% BHI medium. The peptides (100 μl) were thereafter incubated with bacteria (5 μl á 10^7 bact./ml) for 2 hours at +37° C. Drops (5 μl) of the suspension were placed on blood agar plates. The blood agar plates were incubated over night at +37° C. The MMC99 values, i.e. the lowest peptide concentration needed to achieve a 99% reduction of viable bacteria, were recorded (Table 3). The concentration of the bacterial suspension used in the assay was confirmed by viable counts on blood agar plates.
S. aureus (#1800; CCUG, Gothenburg, Sweden) cultured on blood-agar plates [Columbia agar (Oxoid, Basingstoke, UK) supplemented with 5% defibrinated horse blood (National Veterinary Institute (SVA), Uppsala, Sweden)] were transferred to brain heart infusion broth (3.7% BHI; Difco, BD Diagnostics, Franklin Lakes, N.J., USA) and incubated in a shaker at 250 rpm+37° C. over night. The culture was thereafter be diluted 1:10 in fresh BHI broth and incubated for additional two hours to reach log-phase growth. The bacteria were pelleted and suspended in 1% BHI medium (BHI broth diluted 100 times in ultra-pure water) to a final concentration of 10^7 bacteria/ml as estimated by measuring optical density at 600 nm. Peptides were serially diluted by two-fold steps from 400 μM to 0.78 μM in either 1% BHI medium or in 50% heat inactivated simulated wound fluid [SWF, containing 1 part 0.1% peptone (Oxoid, Basingstoke, UK) in saline and 1 part fetal bovine serum, diluted 2 times in ultra-pure water].
The peptides (100 μl) were thereafter incubated with bacteria (5 μl á 10^7 bact./ml) for 2 hours at +37° C. Drops (5 μl) of the suspension were placed on blood agar plates. The blood agar plates were incubated over night at +37° C. The MMC99 values, i.e. the lowest peptide concentration needed to achieve a 99% reduction of viable bacteria were recorded (Table 6). The concentration of the bacterial suspension used in the assay was confirmed by viable counts on blood agar plates.
as §1, §2

[11] = system: TNF-α production in LPS stimulated THP-1 cells; assay: Inhibition of TNF-α production in LPS stimulated THP-1 cells (ELISA); details: screen 2, mean relative secretion
[12] = system: C. albicans (ATCC 64549); assay: MMC99 assay, C. albicans; format: cell-based; details: Table 8B
Experimental: as §1, §2

[13] = system: K. pneumoniae (ATCC 13883); assay: MMC99 assay, K. pneumoniae; format: cell-based; details: Table 8B
Experimental: as §1, §2

FRQWKRWMRKVFHSWRRW [Peptide 265]
MMC99 A. baumannii 1% BHI ([1]; 1% BHI): <2 µg/mL | MMC99 A. baumannii 50% SWF ([1]; 50% SWF): 12 µg/mL | MMC99 S. pyogenes 1% BHI ([2]; 1% BHI): <3 µg/mL | MMC99 S. pyogenes 50% SWF ([2]; 50% SWF): 25 µg/mL | MMC99 MRSA 1% BHI ([3]; 1% BHI): 6 µg/mL | MMC99 MRSA 50% SWF ([3]; 50% SWF): 50 µg/mL | MMC99 S. epidermidis 1% BHI ([4]; 1% BHI): <2 µg/mL | MMC99 S. epidermidis 50% SWF ([4]; 50% SWF): 6 µg/mL | bacterial colonization of infected wounds in pig skin [5]: significant reduction in bacterial counts with a dose response relation; also recorded: highly effective | MMC99 P. aeruginosa 1% BHI ([6]; 1% BHI): 4 µg/mL | MMC99 P. aeruginosa 50% SWF ([6]; 50% SWF): 134 µg/mL | MMC99 E. coli 1% BHI ([7]; 1% BHI): 5 µg/mL | MMC99 E. coli 50% SWF ([7]; 50% SWF): 67 µg/mL | MMC99 P. acnes 1% BHI ([8]; 1% BHI): <3 µg/mL | MMC99 P. acnes 50% SWF ([8]; 50% SWF): 50 µg/mL | bacterial colonization of infected excision wounds in rats [9]: significant reduction in bacterial counts in a dose response fashion; also recorded: pronounced antimicrobial effect | MMC99 S. aureus 1% BHI ([10]; 1% BHI, Table 8A): 4 µg/mL | MMC99 S. aureus 50% SWF ([10]; 50% SWF, Table 8A): 8 µg/mL | MMC99 μM in 1% BHI medium ([10]; screen 2, 1% BHI medium, 2 hours): 6.25 µM | MMC99 μM in 50% SWF ([10]; screen 2, 50% heat inactivated simulated wound fluid, 2 hours): 12.5 µM | TNF-α at 40 μM peptide ([11]; stimulated level without peptide = 100%, basal = 0%, 40 μM peptide): 13.8% | TNF-α at 4 μM peptide ([11]; 4 μM peptide): 87.0% | TNF-α at 10 μM peptide ([11]; 10 μM peptide): 31.1% | MMC99 C. albicans 1% BHI ([12]; 1% BHI): 6 µg/mL | MMC99 C. albicans 50% SWF ([12]; 50% SWF): 100 µg/mL | MMC99 K. pneumoniae 1% BHI ([13]; 1% BHI): 3 µg/mL | MMC99 K. pneumoniae 50% SWF ([13]; 50% SWF): 25 µg/mL
